In data set [1] the target is recombinant soluble His-tagged CD36 (Homo sapiens, UniProt P16671). The data set can be described thus: SPR screening of peptide ligands on a CD36 functionalized sensor. The data set is classed as binding. The following applies: for pKd: CD36 functionalized sensor, linear Langmuir plot. As to the method:
The SPR sensors for screening small peptidic ligand binding to a recombinant soluble His-tagged CD36 functionalized surfaces were prepared as described above. Five ligands were investigated: EP80317, CP-2B(i), CP-3(iv), CP-2A(v) and DBG-178(27) with concentrations ranging from 30 μM to 100 nM except for EP80317. The latter was used for optimizing the system with solutions ranging from 1 mM to 100 nM. EP80317 (HAIC-2MeDTrp-DLys-Trp-D-Phe-Lys-NH2) is a positive control of known activity, CP-2B(i) (His-DTrp-AzaLeu-Trp-DPhe-Ala-NH2) is a negative control, and CP-3(iv) (Ala-DTrp-Ala-AzaPhe-DPhe-Lys-NH2), CP-2A(v) (His-DTrp-AzaGly-Trp-DPhe-Lys-NH2) and DBG-178(27) (His-DTrp-Ala-azaTyr-DPhe-Lys-NH2) are novel CD36 ligands (see PCT publication No. WO 08/154,738). Another negative control was accomplished by exposing the His-tagged hDHFR functionalized surface to the same concentration of CD36 peptidic ligand. Two different approaches were used to remove the His-tagged CD36-Cu complex from the SPR sensors: concentrated histidine solution or saturated EDTA solution.
This is the case of the CD36-ligand system investigated herein, where the ligands are small peptides of about 800 to 1000 g/mol. Indeed, according to the aforementioned principle, the binding of the small peptides to the CD36 receptor should be close to the limit of detection, thus providing unreliable affinity measurements. […] This could be a consequence of a large conformational change of the CD36 receptor upon binding of specific ligands, thus providing the amplification sufficient for SPR signal detection.
(§1) The SPR setup was used for investigating the structure-activity relationships of various CD36 peptidic ligands. […] The measured KD's were compared to the EC50 values obtained in the activated src-kinase assay following CD36 receptor activation by the tested peptides. […] For the src-kinase cellular assay, the response sensitivity (EC50) for the tested peptides (in decreasing order) was as follows: EP80317>CP-2A(v)>CP-3(iv)>DBG-178(27)>CP-2B(i). With SPR, the binding affinity to CD36, in decreasing order, was: DBG-178(27)>CP-2A(v)>EP80317>CP-3(iv)>CP-2B(i). […] For CD36-peptidic ligands, a correlation appears between the affinity binding of the small peptides for CD36 as determined by SPR and their efficiency to produce a cellular response in the src kinase assay. Thus, SPR appears as a selective and sensitive method to screen for CD36 ligands.

The next data set has as its target CD36 receptor (Homo sapiens, UniProt P16671). In words: SRC-kinase cellular assay following CD36 receptor activation. The conditions noted are these: activation of src-kinases after CD36 receptor activation. The data set is classed as cell-based.
Excerpt: as §1

Data set [2] in a line: Capillary electrophoresis, global charge of the peptide. The data set is classed as physicochemical. As to the method:
Capillary electrophoresis was performed to determine if this difference of configuration is due to the global charge of the peptide.

pEC50, pKd: −log10 of the molar value. Numbered stars: 1 amine (or outer) side, 2 acyl side, 3 side chain; on linkers, the order of the positions; unused ones are H or OH. Square brackets hold non-standard residues; d marks the D form. Peptide text beside a SMILES is read from it. azaTyr = O=C(N(Cc1ccc(O)cc1)N[*:1])[*:2]; azaPhe = O=C(N(Cc1ccccc1)N[*:1])[*:2]; azaLeu = CC(C)CN(N[*:1])C(=O)[*:2]; azaGly = NNC(=O)O; Mpa = O=C(O)CCS Some results are limits rather than exact numbers.

Chain of CD36 receptor (P16671 whole entry): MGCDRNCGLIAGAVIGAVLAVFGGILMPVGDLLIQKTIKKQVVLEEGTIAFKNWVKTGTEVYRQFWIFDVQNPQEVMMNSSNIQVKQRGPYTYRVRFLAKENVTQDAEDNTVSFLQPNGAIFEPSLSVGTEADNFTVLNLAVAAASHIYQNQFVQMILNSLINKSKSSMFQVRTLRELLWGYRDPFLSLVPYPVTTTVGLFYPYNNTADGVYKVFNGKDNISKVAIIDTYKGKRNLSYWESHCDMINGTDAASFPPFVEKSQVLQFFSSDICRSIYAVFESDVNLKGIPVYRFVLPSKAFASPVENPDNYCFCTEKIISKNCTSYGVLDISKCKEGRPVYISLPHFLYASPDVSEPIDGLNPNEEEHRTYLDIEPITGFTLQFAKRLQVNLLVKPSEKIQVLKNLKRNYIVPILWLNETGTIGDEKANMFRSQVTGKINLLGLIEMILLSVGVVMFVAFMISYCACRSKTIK
Chain of recombinant soluble His-tagged CD36 (P16671 30-439 limits assumed): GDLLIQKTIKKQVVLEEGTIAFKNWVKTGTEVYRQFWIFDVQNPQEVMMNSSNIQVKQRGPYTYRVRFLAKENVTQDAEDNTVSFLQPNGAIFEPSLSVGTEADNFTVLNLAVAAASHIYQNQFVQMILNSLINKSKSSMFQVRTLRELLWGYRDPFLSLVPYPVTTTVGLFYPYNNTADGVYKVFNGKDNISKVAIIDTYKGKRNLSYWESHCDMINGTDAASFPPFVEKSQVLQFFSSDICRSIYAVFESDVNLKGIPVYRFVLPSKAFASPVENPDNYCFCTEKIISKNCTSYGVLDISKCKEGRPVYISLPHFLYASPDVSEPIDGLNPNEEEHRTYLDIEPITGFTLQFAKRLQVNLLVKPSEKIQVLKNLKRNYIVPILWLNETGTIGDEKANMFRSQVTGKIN

Consider `CC(C)CN(NC(=O)[C@@H](Cc1c[nH]c2ccccc12)NC(=O)[C@@H](N)Cc1c[nH]cn1)C(=O)N[C@@H](Cc1c[nH]c2ccccc12)C(=O)N[C@H](Cc1ccccc1)C(=O)N[C@@H](C)C(N)=O` [CP-2B(i), His-DTrp-AzaLeu-Trp-DPhe-Ala-NH2, reference compound] (H-H[dW][azaLeu]W[dF]A-NH2), for which, in data set [1] (negative control), the “Binding affinity to CD36 (in words)” value was “low binding affinity”.
Take `CC(C)CN(NC(=O)[C@@H](Cc1c[nH]c2ccccc12)NC(=O)[C@@H](N)Cc1cnc[nH]1)C(=O)N[C@@H](Cc1c[nH]c2ccccc12)C(=O)N[C@H](Cc1ccccc1)C(=O)N[C@@H](C)C(N)=O` [CP-2B(i), His-DTrp-AzaLeu-Trp-DPhe-Ala-NH2, reference compound] (H-H[dW][azaLeu]W[dF]A-NH2): the pKd in data set [1] was 5.85. For the same molecule, the pEC50 at CD36 receptor was below 5.00.
On to “3-MPA-HHHHD-OH ([Mpa]HHHHD-OH; SMILES O=C(O)C[C@H](NC(=O)[C@H](Cc1c[nH]cn1)NC(=O)[C@H](Cc1c[nH]cn1)NC(=O)[C@H](Cc1c[nH]cn1)NC(=O)[C@H](Cc1c[nH]cn1)NC(=O)CCS)C(=O)O)”, for which, in data set [2], the “Global charge of the peptide” value is given as “about −1”.
As to `C[C@H](NC(=O)[C@@H](Cc1c[nH]c2ccccc12)NC(=O)[C@@H](N)Cc1cnc[nH]1)C(=O)NN(Cc1ccc(O)cc1)C(=O)N[C@H](Cc1ccccc1)C(=O)N[C@@H](CCCCN)C(N)=O` [DBG-178(27), His-DTrp-Ala-azaTyr-DPhe-Lys-NH2] (H-H[dW]A[azaTyr][dF]K-NH2), the pKd in data set [1] was 7.66. This molecule also gave a pEC50 at CD36 receptor of 7.20.
As to `C[C@H](N)C(=O)N[C@H](Cc1c[nH]c2ccccc12)C(=O)N[C@@H](C)C(=O)NN(Cc1ccccc1)C(=O)N[C@H](Cc1ccccc1)C(=O)N[C@@H](CCCCN)C(N)=O` [CP-3(iv), Ala-DTrp-Ala-AzaPhe-DPhe-Lys-NH2] (H-A[dW]A[azaPhe][dF]K-NH2), the pKd in data set [1] is 6.42. The molecule also had a pEC50 on CD36 receptor of 7.36.
In the case of `NCCCC[C@H](NC(=O)[C@@H](Cc1ccccc1)NC(=O)[C@H](Cc1c[nH]c2ccccc12)NC(=O)NNC(=O)[C@@H](Cc1c[nH]c2ccccc12)NC(=O)[C@@H](N)Cc1cnc[nH]1)C(N)=O` [CP-2A(v), His-DTrp-AzaGly-Trp-DPhe-Lys-NH2] (H-H[dW][azaGly]W[dF]K-NH2), in data set [1], the pKd was 7.36. This molecule also gave a pEC50 on CD36 receptor of 7.59.
Consider “3-MPA-HHDDD-OH ([Mpa]HHDDD-OH; SMILES O=C(O)C[C@H](NC(=O)[C@H](CC(=O)O)NC(=O)[C@H](CC(=O)O)NC(=O)[C@H](Cc1c[nH]cn1)NC(=O)[C@H](Cc1c[nH]cn1)NC(=O)CCS)C(=O)O)”, for which the “Global charge of the peptide” value in data set [2] is given as “about −1”.

The values are drawn from patent publication US8680233B2, “Heteropeptides useful for reducing nonspecific adsorption” (Valorisation-Recherche, Limited Partnership, priority 2009, dated 2014).
